This is an account of results in US9296688B2, “Carbohydrate-selective receptors” (New York University, priority 2012, dated 2016).

The conditions of assay [1]: 1/BC50 plot, pyranoside 0 to 10.0 mM.
Protocol: (§1) ^1H NMR titrations were performed in CDCl3 at a field strength of either 500, 800, or 900 MHz at 25, 20, 15, 10, or 5° C. The ^1H NMR resonances corresponding to both pyranoside and host were assigned through ^1H-^1H COSY and NOESY experiments.
(§2) This is the result of an exchange process involving 1 (H) and pyranoside (G) equilibria products exchanging fast on the NMR timescale, resulting in the averaging of chemical shifts of protons in differing chemical environments.
(§3) Fittings were conducted in Microsoft Excel 2007 using the Solver feature. […]
Thus, the binding of pyranosides was first studied under conditions where receptor 1 was maintained at a low concentration (<70 μM) to minimize the contribution of the Kdimer and K3 equilibria (FIG. 2). Once the values of K1 and K2 were determined, their values were held invariant in subsequent peak shift fittings, which facilitated the quantification of the other Kas. […]
(§4) For each non-mannoside, K1 was determined by subjecting all resolvable resonances from each titration at 25° C. to a global nonlinear fitting analysis with a model combining K1 and Kdimer (13.0±0.5 M^−1), which was measured independently by ^1H NMR dilution experiments (Table 1). […]
The procedure of assay [2]:
Note that all equilibria present in a receptor/pyranoside mixture contribute toward the calculated BC50 value, and a higher 1/BC50 value is indicative of a higher overall binding strength.
As each 1/BC50 plot is a measure of affinity between 1 and pyranosides, comparing the plots of two or more pyranosides provides a means of assessing selectivity.
The BC50^0 values of the pyranosides for receptor 1 were determined using Eq. 17.

The source holds these as a separate data set.
For assay [3] the following is noted: CDCl3, 25° C., extrapolated from a Van't Hoff plot.
Protocol: as §1, §2, §3
Thus, the binding of pyranosides was first studied under conditions where receptor 1 was maintained at a low concentration (<70 μM) to minimize the contribution of the Kdimer and K3 equilibria (FIG. 2). Once the values of K1 and K2 were determined, their values were held invariant in subsequent peak shift fittings, which facilitated the quantification of the other Kas.
as §4
Assay in assay [4]: not given
This is another data set of the same source.

Setting [5] is: 1:2 binding (K2), CDCl3, Van't Hoff.

Values joined by “and” are separate entries in the source; they are usually repeats but may differ in a detail not shown here. Equal values may be shown once. Read-outs that look alike come from different tables or passages of the source.

As for `c1c[nH]c(CNCc2cc(CNCc3ccc[nH]3)cc(-c3cc(CNCc4ccc[nH]4)cc(CNCc4ccc[nH]4)c3)c2)c1` [Compound 1, N,N′,N′N″N′″-([1,1′-biphenyl]-3,3′,5,5′-tetrayltetrakis(methylene))tetrakis (1-(1H-pyrrol-2-yl)methanamine)], the “concentration of α-Man where the maximum 1/BC50 value (maximum selectivity) is obtained” value in assay [1] came to 0.8 mM. Further, the binding order result in assay [2] (higher pyranoside concentrations (>1.0 mM)) is “α-Man>β-Man>β-Glc”; in assay [2] (pyranoside from 0.3 mM to 1.0 mM), “α-Man>β-Glc>β-Man”. Also, the “ΔH°” value under setting [5] is -20.2 ± 1.2 kcal/mol. Moreover, under setting [5], the “ΔS°” value is given as −52±4 e.u. For the same compound, where the note is “2:1 binding, 25° C.”, the “interaction parameter α for K3 (K3 / reference Ka)” value is “at least 2.7”. Moreover, the “approximate baseline (reference) Ka, 1:1 binding of 1 to the β-face of β-Man” value (from NMR detection limit, no NOEs on β-face, 0.5 mM 1, 1.0 mM β-Man, 25° C.) was ≤ 104 M⁻¹. In addition, in assay [3], the “K3 (2:1 receptor:pyranoside binding)” value is 3 M⁻¹. In addition, the Kdimer in assay [4] (CDCl3, 5° C.) is 24.2 ± 0.5 M⁻¹; in assay [4] (CDCl3, 10° C.), 20.8 M⁻¹; in assay [4] (CDCl3, 15° C.), 16.9 M⁻¹; in assay [4] (CDCl3, 20° C.) it was 15.3 M⁻¹; in assay [4] (CDCl3, 25° C.) it was 13.0 M⁻¹ and 13.0 ± 0.5 M⁻¹.
